Experimental data reported in US20150038435A1, “N-TERMINALLY MODIFIED OLIGOPEPTIDES AND USES THEREOF” (Novo Nordisk A/S, priority 2012, published 2015).
Values joined by “and” are separate entries in the source; they are usually repeats but may differ in a detail not shown here. Identical values can stand only once. Non-standard residues stand in square brackets, D forms with d. Residues, ends and D or L forms follow the SMILES beside them. *: point of attachment. Lauroyl = CCCCCCCCCCCC(=O)*

Assays:
[1] = Rat PK following intraintestinal injection; assay type: in vivo; conditions: of insulin, 60 nmol/kg intraintestinal, Composition 3: 3% compound, propylene glycol, diglycerol caprylate, Tween 20
Description: Anaesthetized rats were dosed intraintestinally (into jejunum) with reference compounds and N-terminally acylated peptide or oligopeptides of the invention. Plasma concentrations of the employed compounds as well as changes in blood glucose were measured at specified intervals for 4 hours or more post-dosing. Pharmacokinetic parameters were subsequently calculated using WinNonLin Professional (Pharsight Inc., Mountain View, Calif., USA).
The compositions for the intraintestinal injection model were prepared for example according to the following composition (in weight %):
The anesthetized rat was placed on a homeothermic blanket stabilized at 37° C. A 20 cm polyethylene catheter mounted a 1-ml syringe was filled with insulin composition or vehicle. A 4-5 cm midline incision was made in the abdominal wall. […]
Blood samples for the determination of whole blood glucose concentrations were collected in heparinised 10 μl capillary tubes by puncture of the capillary vessels in the tail tip. Blood glucose concentrations were measured after dilution in 500 μl analysis buffer by the glucose oxidase method using a Biosen autoanalyzer (EKF Diagnostic Gmbh, Germany). […]
Samples were collected for determination of the plasma insulin concentration. […] Plasma concentrations of the insulin analogues were measured in a immunoassay. […]

[2] = molecular target: Chymotrypsin; assay: Inhibition of enzymatic degradation of a chromogenic substrate (Example 202); assay type: biochemical; conditions: substrate N-succinyl-Ala-Ala-Pro-Phe-p-Nitroanilide
From the text: The use of chromogenic substrates to monitor activity of proteolytic enzymes is known in the field (for example DelMar, E. G., et al., Anal. Biochem., 99, 316-320, (1979)). For example, N-succinyl-Ala-Ala-Pro-Phe-p-Nitroanilide is commonly used substrate for measuring chymotrypsin activity. Enzymatic cleavage of 4-nitroanilide substrates yields 4-nitroaniline (yellow color under alkaline conditions).
An assay following the increase in absorbance at 395 nm as a function of time was established in 96 well format using Varioskan Flash Multimode Meter (Thermo Scientific). Each well contained 70 μl of Dulbecco's phosphate buffer saline (Invitrogen catalogue #14190-094), 10 μl of N-succinyl-Ala-Ala-Pro-Phe-p-Nitroanilide (Sigma cat# S 7388) in DMSO (different concentrations were used in order to obtain the inhibition constant), 10 μl of N-terminally acylated peptide or oligopeptide of the invention in varying concentration and 10 μl of a stock solution of an enzyme (chymotrypsin, trypsin, elastase, etc.). The incubations were performed at 37° C. Absorbance at 395 nm was measured immediately after addition of the enzyme to the 96 well plate and also every minute for the next 80 minutes. The concentration of the enzyme was optimized to allow determination of slopes for the time course of initial absorbance increase with and without added inhibitors. The slopes were determined by linear regression of the linear part of the fluorescence trace (for example, the first 10 min of the reaction). Each assay was performed in duplicate and average of the two traces was included in the calculations. The relative effect of N-terminally acylated peptide or oligopeptides of the invention on enzymatic degradation of N-succinyl-Ala-Ala-Pro-Phe-p-Nitroanilide was obtained by comparison of the slopes achieved by the same concentration of the N-terminally acylated peptide or oligopeptides. […] This was done by plotting the slopes achieved with different concentrations of the N-terminally acylated peptide or oligopeptides of the invention as a function of their concentrations and fitting the experimental results using, for example, sigmoidal logistic regression (2 parameters, Sigma Plot v 11). Inhibition constants for the interaction between the N-terminally acylated peptide or oligopeptides of the invention and proteolytic enzymes were also obtained by performing the assay described above with varying concentrations of the inhibitor and substrate and analyzing the results, for example, by double reciprocal transformation as known to the person skilled in the art and described for example in Hubalek, F. et al., J. Med. Chem. 47, 1760-1766 (2004).

[3] = molecular target: Chymotrypsin; assay: Inhibition of insulin degradation, HPLC assay (Example 201); assay type: biochemical; conditions: for Ki: substrate A14E, B25H, B29K(N(eps)Octadecanedioyl-γGlu-OEG-OEG), desB30 human insulin
Description: Degradation using duodenum lumen enzymes (prepared by filtration of duodenum lumen content) from SPD rats.
Each HPLC vial contained Dulbecco's phosphate buffer saline (DPBS, Invitrogen catalogue #14190-094), A14E, B25H, B29K(N(eps)Octadecanedioyl-γGlu-OEG-OEG), desB30 human insulin, N-terminally acylated peptide or oligopeptide of the invention and enzyme (chymotrypsin, trypsin, elastase or duodenum lumen enzymes).
The assay was performed in an HPLC autosampler equilibrated at 37° C., at specified time points, aliquots were injected directly onto an HPLC column and the amount of the intact A14E, B25H, B29K(N(eps)Octadecanedioyl-γGlu-OEG-OEG), desB30 human insulin was determined. Degradation half life was determined by exponential fitting of the data (for example, single exponential decay, 2 parameters, Sigma Plot version 11, Systat Software) and normalized to half time determined for the reference insulins, or human insulin in each assay. […] This was done by plotting the half life achieved with different concentrations of the N-terminally acylated peptide or oligopeptides of the invention as a function of their concentrations and fitting the experimental results using, for example, sigmoidal logistic regression (2 parameters, Sigma Plot v 11). Inhibition constants for the interaction between the N-terminally acylated peptide or oligopeptides of the invention and proteolytic enzymes were also obtained by performing the assay described above with varying concentrations of the inhibitor and substrate and analyzing the results, for example, by double reciprocal transformation as known to the person skilled in the art and described for example in Hubalek, F. et al., J. Med. Chem. 47, 1760-1766 (2004). Other algorithms known to the person skilled in the art may also be used to determine inhibition constants from the results.

Compound | Bioavailability [1] [%] | Ki ([2]; chymotrypsin) | kind of enzyme inhibition ([2]; chymotrypsin) | Ki [2] [µM] | kind of enzyme inhibition ([3]; chymotrypsin, insulin analogue as substrate) | Ki ([3]; chymotrypsin) [µM] | Ki [3] [µM]
CCCCCCCCCCCC(=O)N[C@H](C)C(=O)N[C@H](C)C(=O)N1CCC[C@@H]1C(=O)N[C@H](Cc1ccccc1)C(=O)O [Example 1, N-dodecanoyl-DAla-DAla-DPro-DPhe-OH] (Lauroyl-[dA][dA][dP][dF]-OH) | 4.5 ± 2.7 |  |  |  |  |  | 
CCCCCCCCCCCC(=O)N[C@@H](C)C(=O)N[C@@H](C)C(=O)N1CCC[C@H]1C(=O)N[C@@H](Cc1ccccc1)C(=O)O [Example 34, N-dodecanoyl-Ala-Ala-Pro-Phe-OH] (Lauroyl-AAPF-OH) |  | ~130 µM and ~150 µM | competitive inhibition | 130 | mixed inhibition | ~15 | 15
